Experimental data as given in PMC12461331, “Screening of Medicines for Malaria Venture Open Boxes Identifies Potent SARS-CoV‑2 Papain-like Protease (PL^pro) Inhibitors” (ACS Omega, 2025).
≈ marks a conversion by molar mass, not a printed value. Where “and” joins values, the source holds several entries; their conditions need not be identical. Identical values can stand only once. Like-named read-outs stand apart in the source and are kept apart here. Square brackets hold non-standard residues; d marks the D form. Peptide text beside a SMILES is read from it.

How the values were obtained:
physchem [1] = conditions: 25 °C, kinetic from dmso stock
[2] = tested on: uninfected HeLa-ACE2 cells; conditions: Hela-ACE2 Uninfected Cell Toxicity; for qAC50: relation in column qAC50 Mode, unit not given
[3] = Mouse liver microsomal stability assay; conditions: CD1, mouse, pH 7.4
in vitro [4] = conditions: CD1, mouse, microsomes, pH 7.4
PL^pro = PL^pro (Severe acute respiratory syndrome coronavirus 2, UniProt P0DTD1); conditions: 20 μM compound, 5 μM enzyme, average of triplicates with SD
in vitro [5] = conditions: PAMPA
in vitro [6] = conditions: human, microsomes, pH 7.4
[7] = female, BALB/c, mouse, 1 h, 2 μM, pH 7.4
HeLa-ACE2 cells [8] = conditions: Hela-ACE2 CoV-2 Total Cell count
[9] = Human liver microsomal stability assay; conditions: human
SARS-CoV-2 [10] = conditions: for CoV2 Efficacy (delta S0:Sinf): HeLa-ACE2; for Data Mode: Hela-ACE2 % Positive SARS-CoV-2; for S0 / Sinf / nHill: Hela-ACE2 % Positive SARS-CoV-2, curve fit
HeLa-ACE2 cells [11] = assay: cells; conditions: Homo sapiens
Plasma stability = conditions: for half-life at 2 μM: female, BALB/c, mouse, plasma, pH 7.4
physchem [12] = conditions: pH 7.4
SARS-CoV-2 [13] = assay: microbe, parasite or virus in culture; conditions: for AC50: Severe acute respiratory syndrome coronavirus 2, HeLa-ACE2, read-out: Log AC50 (converted)
in vitro [14] = conditions: human, uninfected HeLa-ACE2 cells
[15] = human, microsomes
[16] = Parallel artificial membrane permeability assay (PAMPA)
Kinetic solubility = conditions: 25 °C, kinetic from dmso stock
[17] = Chromatographic distribution coefficient (eLogD7.4); conditions: pH 7.4
SARS-CoV-2 PL^pro = SARS-CoV-2 PL^pro (Severe acute respiratory syndrome coronavirus 2, UniProt P0DTD1); format: biochemical; conditions: single dose 10 μM end point screen
[18] = HeLa-ACE2, read-out: HeLa-ACE2 Total cells EC50
[19] = Severe acute respiratory syndrome coronavirus 2, HeLa-ACE2, read-out: SARS-CoV-2 EC50, HeLa-ACE2 cells, average of triplicates
[20] = Severe acute respiratory syndrome coronavirus 2, HeLa-ACE2, read-out: qAC50, Hela-ACE2 % Positive SARS-CoV-2, relation in column qAC50 Mode, unit inferred
[21] = uninfected HeLa-ACE2 CC50, supplement summary
[22] = uninfected HeLa-ACE2 CC50, uninfected HeLa-ACE2 cells, average of triplicates

| Compound | solubility kinetic at 24 h (physchem [1]; pH 2, aqueous buffer) | solubility kinetic at 24 h (physchem [1]; pH 7.4, aqueous buffer) | Data Mode [2] | qAC50 [2] | half-life at 0.5 μM ([3]; liver microsomes) | microsomal CLint at 0.5 μM (in vitro [4]) | ΔT m (PL^pro) | Papp at 5 h, 10 μM (in vitro [5]) | microsomal CLint at 0.5 μM (in vitro [6]) | plasma stability remaining 60 min [7] | Data Mode (HeLa-ACE2 cells [8]) | half-life at 0.5 μM ([9]; liver microsomes, pH 7.4) | CoV2 Efficacy (delta S0:Sinf) (SARS-CoV-2 [10]) | Data Mode (SARS-CoV-2 [10]) | S0 (SARS-CoV-2 [10]) | Sinf (SARS-CoV-2 [10]) | nHill (SARS-CoV-2 [10]) | EC50 (HeLa-ACE2 cells [11]; [18]) | EC50 (HeLa-ACE2 cells [11]; HeLa-ACE2, read-out: qAC50) | chromatographic logD (physchem [12]) | other results |
| --- | --- | --- | --- | --- | --- | --- | --- | --- | --- | --- | --- | --- | --- | --- | --- | --- | --- | --- | --- | --- | --- |
| Cc1ccc(CNC(=O)C2CCN([C@@H](C)c3cccc4ccccc34)CC2)cc1 (stereo in doubt) [Compound 5] | > 25 µg/mL | 8.62 µg/mL (≈ 22.3 µM) | inactive | > 3.984e-5 | 9.48 min | 292 µL/min/mg | 5.57 °C and 5.57 ± 0.09 °C | 0.67 ×10⁻⁶ cm/s | 152 µL/min/mg | 33.79% | inactive | 18.2 min | 105.451 | decreasing (weakly active) | 5.451 | -100 | 2.548 | > 9.61 µM | > 9.61 µM | 4.55 | half-life at 2 μM (Plasma stability): 239 min; AC50 (SARS-CoV-2 [13]): > 9.61 µM; EC50 (SARS-CoV-2 [13]; [19]): > 9.61 µM; EC50 (SARS-CoV-2 [13]; [20]): > 9.61 µM; CC50 at 24 h (in vitro [14]; [21]): > 39.8 µM; CC50 at 24 h (in vitro [14]; [22]): > 39.8 µM |
| COc1ccc(CNC(=O)C2CCN([C@@H](C)c3ccccc3)CC2)cc1 [Compound 2] | > 22.1 µg/mL | > 22 µg/mL |  |  | 9.25 min | 300 µL/min/mg | 1.5 °C and 1.50 ± 0.05 °C | 1.47 ×10⁻⁶ cm/s | 24.4 µL/min/mg | 91.46% |  | 114 min |  |  |  |  |  |  |  | 3 | metabolic stability (in words) [15]: improved stability |
| Cc1ccc(CNC(=O)C2CCN([C@H](C)c3cccc4ccccc34)CC2)cc1 [Compound 4] | > 24.2 µg/mL | 8.09 µg/mL (≈ 20.9 µM) | inactive | > 3.984e-5 | 13 min | 214 µL/min/mg | 7.98 °C and 7.9 ± 0.6 °C | 0.78 ×10⁻⁶ cm/s | 78.4 µL/min/mg | 58.47% | inactive | 35.4 min | 103.282 | decreasing (weakly active) | 3.282 | -100 | 1.703 | > 9.61 µM | > 9.61 µM | 4.56 | half-life at 2 μM (Plasma stability): 385 min; AC50 (SARS-CoV-2 [13]): > 9.61 µM; EC50 (SARS-CoV-2 [13]; [19]): > 9.61 µM; EC50 (SARS-CoV-2 [13]; [20]): > 9.61 µM; CC50 at 24 h (in vitro [14]; [21]): > 39.8 µM; CC50 at 24 h (in vitro [14]; [22]): > 39.8 µM |
| COc1ccc(CC(=O)N2CCN([C@@H](C)c3cccc4ccccc34)CC2)cc1 [Compound 8] |  |  |  |  |  |  | 0.28 ± 0.05 °C |  |  |  |  |  |  |  |  |  |  |  |  |  | Papp at 5 h, 10 μM [16]: 1.07 ×10⁻⁶ cm/s; half-life at 0.5 μM ([3]; microsomes): 7.97 min; microsomal CLint at 0.5 μM ([3]; microsomes): 348 µL/min/mg; solubility kinetic at 24 h (Kinetic solubility; pH 2, aqueous buffer): > 22.9 µg/mL; solubility kinetic at 24 h (Kinetic solubility; pH 7.4, aqueous buffer): > 15.8 µg/mL; microsomal CLint at 0.5 μM ([9]; microsomes, pH 7.4, HLM CLint(mic), human liver microsomes): 186 µL/min/mg; half-life at 0.5 μM ([9]; microsomes, pH 7.4, HLM T 1/2, human liver microsomes): 14.9 min; plasma stability remaining 60 min (Plasma stability; mouse plasma, 60 min): 84.48%; chromatographic logD [17]: 4.56 |
| C[C@@H](N)C(=O)N[C@H](CCCCN)C(=O)N[C@H](CCCNC(=N)N)C(=O)N[C@H](Cc1c[nH]cn1)C(=O)N[C@H](Cc1c[nH]cn1)C(=O)NCC(=O)N[C@H](Cc1ccc(O)cc1)C(=O)N[C@H](CCCCN)C(=O)N[C@H](CCCNC(=N)N)C(=O)N[C@H](CCCCN)C(=O)N[C@H](Cc1ccccc1)C(=O)N[C@H](Cc1c[nH]cn1)C(N)=O [P-113D] (H-[dA][dK][dR][dH][dH]G[dY][dK][dR][dK][dF][dH]-NH2) |  |  |  |  |  |  |  |  |  |  |  |  |  |  |  |  |  |  |  |  | inhibition of SARS-CoV-2 PL^pro (SARS-CoV-2 PL^pro): ≥ 80% |
